Measurements taken from patent US20220162240A1, “MITOCHONDRIA-TARGETED ISOKETAL/ISOLEVUGLANDIN SCAVENGERS” (Vanderbilt University, priority 2019, published 2022).
Entries after “also recorded” stand apart in the source; their conditions may differ.

Assays:
[1] = system: human aortic endothelial cells (HAEC); assay: Mitochondrial superoxide in HAEC incubated with Ang II plus TNFα (MitoSOX/HPLC); format: cell-based; settings: 50 nM, Ang II + TNFα 24 hours, MitoSOX/HPLC
Description: (§1) Free radical oxidation of arachidonic acid produces highly reactive isolevuglandins (isoLG) which causes mitochondrial dysfunction by opening of the mitochondrial permeability transition pore (mPTP). […] The functional role of mitochondrial isoLG was tested in vivo using angiotensin II model of hypertension. C57Bl/6J mice were infused with angiotensin II (0.7 mg/kg/day) or saline (Sham) and received mito2HOBA in the drinking water (0.1 g/L). […] Decrease of NO is a hallmark of endothelial dysfunction in hypertension due to vascular oxidative stress.
(§2) Mitochondrial O2^• and cardiolipin oxidation (specific marker of mitochondrial dysfunction and oxidative stress) in cultured human aortic endothelial cells (HAEC) were incubated with Ang II and TNFα.

[2] = system: human aortic endothelial cells (HAEC); assay: Cardiolipin oxidation in HAEC incubated with Ang II plus TNFα (LC/MS); format: cell-based; settings: 50 nM, Ang II + TNFα 24 hours
Description: as §1, §2

[3] = system: Ang II-infused C57Bl/6J mice; assay: Blood pressure in angiotensin II-induced hypertension, mito2HOBA in drinking water; format: in vivo; settings: Ang II 0.7 mg/kg/day, compound 0.1 g/L in drinking water
Description: (§3) (A) Blood pressure in C57Bl/6J mice infused with saline (Sham) or Ang II ([…]). Mito2HOBA was supplemented in drinking water (0.1 g/L). (B) Western blot of aorta mitochondria for isoLG adducts (D11 antibody), CypD, GCN5L1, Sirt3 and CypD acetylation (CypD i.p. and anti-Acetyl-K WB). Results are mean±SEM. *P<0.01 vs Sham, **P<0.01 vs Ang II (n=8).
(A) Blood pressure in C57Bl/6J wild type mice infused with either saline (Sham) or Ang II ([…]). Mito2HOBA was supplemented in drinking water (0.1 g/L). (B) Mitochondrial isoLG were measured by Western blot in the heart mitochondria using D11 antibody as we have previously described. Results are mean±SEM. *P<0.01 vs Sham, **P<0.01 vs Ang II (n=8).
(§4) Sham or Ang II-infused mice were supplemented with mito2HOBA in the drinking water (0.1 g/L) or plain water. […] Following 14 days of Ang II infusion, mice were sacrificed, aortas were isolated for Western blot studies. […] This causes an imbalance between mitochondrial acetylation and deacetylation pathways leading to hyperacetylation of mitochondrial proteins measured by Ac-K and CypD hyperacetylation.
The present inventors implanted an osmotic minipump with Ang II (0.7 mg/kg/day) or saline (Sham) in C57Bl/6J mice receiving mito2HOBA in the drinking water (0.1 g/L) or plain water. […]

[4] = system: mitochondrial isoLG protein adducts; assay: Western blot of isoLG adducts (D11 antibody) in heart mitochondria of Ang II-infused mice; format: in vivo; settings: 0.1 g/L in drinking water, 14 days
Description: Mito2HOBA was supplemented in drinking water (0.1 g/L). […] Results are mean±SEM. *P<0.01 vs Sham, **P<0.01 vs Ang II (n=8).
as §1

[5] = system: mitochondrial isoLG protein adducts; assay: Western blot of isoLG adducts and CypD-isoLG (D11 antibody) in aorta mitochondria of Ang II-infused mice; format: in vivo
Description: as §3
FIG. 18 is a western blot analysis of isoLG protein adducts in mitochondria isolated from aorta dissected from C57Bl/6J mice infused with Ang II and treated with mito2HOBA (A). CypD-isoLG modification was determined by CypD immunoprecipitation and Western blot with anti-isoLG D11 antibody (B).
as §4
The potential CypD-isoLG adduct formation was determined by CypD immunoprecipitation and Western blot with anti-isoLG D11 antibody.

CypD acetylation = assay: Western blot of aorta mitochondria for GCN5L1, Sirt3, Ac-K and CypD acetylation in Ang II-infused mice; format: in vivo; settings: 0.1 g/L in drinking water; for CypD acetylation: CypD i.p. and anti-Acetyl-K WB
Description: as §3, §4
Hypertension impairs mitochondrial function and mito2HOBA attenuates mitochondrial dysfunction, and accumulation of mitochondrial isoLG in hypertension promotes CypD acetylation and mPTP opening, impairs mitochondrial respiration and reduces ATP. Scavenging of mitochondrial isoLG with mito2HOBA prevents these deleterious effects. The inventors analyzed kidney tissue isolated from control mice (Sham), mice drinking mito2HOBA, mice infused with Ang II and Ang II-infused mice supplemented with mito2HOBA (mito2HOBA+Ang II).

[6] = system: isoLG-Lysyl-Lactam protein adducts; assay: LC/MS/MS of isoLG-Lys-Lactam protein adducts in kidney mitochondria of Ang II-infused mice; format: in vivo; settings: 0.1 g/L in drinking water
Description: (A) Representative LC/MS/MS chromatograms; (B) isoLG-Lys-Lactam levels in mitochondria isolated from kidneys of mice drinking water (Sham), mito2HOBA (0.1 g/L), and infused with Ang II (0.7 mg/kg/day). Results are mean±SEM (n=3). *P<0.05 vs Ang II.

kidney mitochondria = settings: Ang II-infused mice, 0.1 g/L in drinking water
Description: C57Bl/6J mice were infused with Ang II ([…]) and mito2HOBA in the drinking water (0.1 g/L). Following 14 days of Ang II infusion the animals were sacrificed and kidneys were isolated for mitochondrial studies. […] Respiratory control ratio (State 3/State 4) was measured in isolated kidney mitochondria with glutamate and malate […]. Control level is 100%. (B) Kidney ATP was measured in freshly isolated tissue by luciferase-based luminescent assay. Results are mean±SEM. *P<0.01 vs Sham, **P<0.01 vs Ang II (n=3-8).
(A) Respiratory control ratio (State 3/State 4) was measured in isolated kidney mitochondria with glutamate and malate. Control level is 100%. (B) Kidney ATP level was measured in freshly isolated tissue by luciferase-based luminescent assay. C57Bl/6J mice were infused with Ang II ([…]) and mito2HOBA was provided in the drinking water (0.1 g/L). Following 14 days of Ang II infusion the animals were sacrificed and kidneys were isolated for mitochondrial and ATP studies. Results are mean±SEM. *P<0.01 vs Sham, **P<0.01 vs Ang II (n=3-8).
The inventors analyzed kidney tissue isolated from control mice (Sham), mice drinking mito2HOBA, mice infused with Ang II and Ang II-infused mice supplemented with mito2HOBA (mito2HOBA+Ang II).
To show this, the present inventors analyzed kidney tissue isolated from control mice (Sham), mice drinking mito2HOBA (mito2HOBA), mice infused with Ang II (Ang II) and Ang II-infused mice supplemented with mito2HOBA (mito2HOBA+Ang II).

aortic superoxide = assay: Aortic superoxide by DHE probe and HPLC in Ang II-infused mice; format: in vivo; settings: 0.1 g/L in drinking water
Description: (§5) (A) Aortic […] was measured by DHE probe and HPLC. (B) Endothelial NO was analyzed by ESR and Fe(DETC)2. C57Bl/6J mice were infused with Ang II ([…]) and mito2HOBA was provided in the drinking water (0.1 g/L).
(§6) The present inventors examined vascular oxidative stress by measurements of aortic ? using fluorescent ? probe DHE and HPLC, and analysis of endothelial NO using Electron Spin Resonance and specific NO spin trap Fe(DETC)2.
(§7) Among the other actions O2^• inactivates endothelial nitric oxide (NO), promotes vasoconstriction and vascular remodeling and ultimately increases systemic vascular resistance. Decreased NO bioavailability is therefore a hallmark of endothelial oxidative stress in hypertension due to NO oxidation, reduced NO production and eNOS uncoupling. We measured aortic O2^• using the fluorescent O2^• probe DHE and HPLC as we described previously. Endothelial NO was quantified by Electron Spin Resonance (ESR) and specific NO spin trap Fe(DETC)2.

endothelial NO = assay: Endothelial NO by ESR and Fe(DETC)2 in Ang II-infused mice; format: in vivo; settings: 0.1 g/L in drinking water, ESR
Description: as §5, §6, §7

[7] = system: human aortic endothelial cells (HAECs); assay: Tolerability in cultured HAEC; format: cell-based
mice = assay: Tolerability in mice receiving compound in drinking water; format: in vivo
[8] = Description: as §1
The above example is a water soluble compound which can be supplied to cells in the media and provided to animals in the drinking water.

mitochondrial matrix = settings: TPP conjugate, given as example; cited from earlier work

Molecule: 4-(aminomethyl)-3-hydroxyphenoxy) butyl)triphenylphosphonium [mito2HOBA]
- mitochondrial superoxide production / mitochondrial oxidative stress [1]: inhibited; also recorded: diminished mitochondrial oxidative stress; also recorded: inhibition of mitochondrial oxidative stress
- cardiolipin oxidation [2]: prevented cardiolipin oxidation
- cardiolipin oxidation ([2]; listed as Mito2HOBA): more effective in prevention of cardiolipin oxidation than 2HOBA
- Ang II-induced hypertension (blood pressure) [3]: significantly attenuates
- Ang II-induced hypertension (blood pressure) ([3]; listed as Mito2HOBA): significantly attenuated
- isoLG adducts in heart mitochondria [4]: reduced accumulation of isoLG adducts
- isoLG adducts in aorta mitochondria ([5]; Ang II-infused mice, 0.1 g/L in drinking water, 14 days, D11 antibody): prevents accumulation of isoLG adducts; also recorded: attenuated accumulation of mitochondrial isoLG
- protein isoLG adducts and CypD-isoLG in aortic mitochondria ([5]; CypD immunoprecipitation and Western blot with D11 antibody): diminished
- balance between GCN5L1 and Sirt3 in aorta mitochondria (CypD acetylation): corrects the imbalance between GCN5L1 and Sirt3
- mitochondrial Ac-K (acetylation of mitochondrial proteins) (CypD acetylation): reduces mitochondrial Ac-K
- CypD acetylation (CypD acetylation): reduced CypD acetylation
- CypD acetylation (CypD acetylation; listed as Mito2HOBA): prevents CypD hyperacetylation
- isoLG-Lysyl-Lactam protein adducts in kidney mitochondria [6]: abolished isoLG-Lysyl-Lactam adducts formation
- mPTP opening (Ca2+ retention capacity) in kidney mitochondria (kidney mitochondria; 14 days): attenuates mPTP opening; also recorded: reduces mPTP opening
- mitochondrial respiration (respiratory control ratio State 3/State 4) (kidney mitochondria; kidney mitochondria with glutamate and malate): protects mitochondrial respiration
- kidney ATP (kidney mitochondria; luciferase-based luminescent assay): preserves normal ATP production
- vascular (aortic) superoxide (aortic superoxide): reduced; also recorded: reduces vascular O2^•
- endothelial NO (endothelial NO): preserved endothelial NO; also recorded: preserves NO bioavailability
- tolerability by cultured HAECs [7]: well tolerated
- concentration well tolerated by cultured HAECs ([7]; preliminary in vitro experiments): up to 200 nM
- tolerability by mice receiving it in drinking water (mice): well tolerated
- dose in drinking water well tolerated (mice; preliminary in vivo experiments): 0.1 to 0.3 g/L
- water solubility [8]: water soluble

Molecule: CC1(C)CC(NC(=O)C[P+](c2ccccc2)(c2ccccc2)c2ccccc2)CC(C)(C)N1[O] [mitoTEMPO]
- concentration within the mitochondrial matrix (mitochondrial matrix): more than a five hundred-fold
